Reference: ChEMBL document CHEMBL5154681, “Small Amphiphilic Peptides: Activity Against a Broad Range of Drug-Resistant Bacteria and Structural Insight into Membranolytic Properties” (J Med Chem, 2022)
Converted amounts (≈) assume the structure as drawn. The source made the active and inactive calls. No cut-off for these calls is given here. Square brackets hold non-standard residues; d marks the D form. Peptide text beside a SMILES is read from it. Dip = N[C@H](C(=O)O)C(c1ccccc1)c1ccccc1; 2Nal = N[C@@H](Cc1ccc2ccccc2c1)C(=O)O

Tests used:
Bacillus cereus = assay: Antibacterial activity against Bacillus cereus ATCC 13061 incubated for 24 hrs by microtiter plate method; type: functional
Klebsiella pneumoniae = assay: Antibacterial activity against carbapenem-resistant Klebsiella pneumoniae ATCC BAA-2470 incubated for 24 hrs by microtiter plate method; type: functional
Staphylococcus aureus [1] = assay: Antibacterial activity against methicillin resistant Staphylococcus aureus ATCC BAA-1556 after 24 hrs in presence of 150 mM of NaCl by microtiter plate method; type: functional
Escherichia coli [2] = assay: Antibacterial activity against Escherichia coli ATCC 25922 after 24 hrs in presence of 150 mM NaCl by microtiter plate method; type: functional
Staphylococcus aureus [3] = assay: Antibacterial activity against methicillin-resistant Staphylococcus aureus ATCC BAA-1556 assessed as loss of membrane fluid at 4 times of MIC incubated for 30 mins by FE-SEM analysis; type: functional, organism-based
Staphylococcus aureus [4] = assay: Bactericidal activity against methicillin resistant Staphylococcus aureus ATCC BAA-1556 assessed as time required for complete reduction of bacterial growth at 4 times MIC by counting formed colonies; type: functional
Staphylococcus aureus [5] = assay: Antibacterial activity against methicillin resistant Staphylococcus aureus ATCC BAA-1556 incubated for 24 hrs; type: functional
Escherichia coli [6] = assay: Antibacterial activity against Escherichia coli ATCC BAA-2452 assessed as loss of membrane fluid at 4 times of MIC incubated for 30 mins by FE-SEM analysis; type: functional, organism-based
[7] = Proteolytic stability in human plasma at 100 uM incubated for 30 mins by Q-TOF LC/MS analysis relative to control; type: ADME, cell-free; conditions: read-out: Stability
Escherichia coli [8] = assay: Antibacterial activity against Escherichia coli ATCC 25922 assessed as reduction in microbial growth after 24 hrs in presence of 6 mM of NH4Cl at by microtiter plate method; type: functional
Enterococcus faecium [9] = assay: Antibacterial activity against Enterococcus faecium ATCC 27270 incubated for 24 hrs by microtiter plate method; type: functional
[10] = Cytotoxicity against HEK293 assessed as cell viability at 50 ug/ml incubated for 24 hrs by microplate spectrophotometer analysis method relative to control; type: toxicity, cell-based; conditions: human, HEK293 cells, at 50 µg/mL, read-out: Activity
Staphylococcus aureus [11] = assay: Antibacterial activity against methicillin resistant Staphylococcus aureus ATCC BAA-1556 incubated for 24 hrs by microtiter plate method; type: functional; conditions: Staphylococcus aureus, ATCC BAA-1556, 24 h, read-out: MIC
Enterococcus faecalis [12] = assay: Potency index, ratio of daptomycin MIC to test compound MIC for antibacterial activity against vancomycin resistant Enterococcus faecalis ATCC 51575; type: functional
[13] = Proteolytic stability in human plasma at 100 uM incubated for 24 hrs by Q-TOF LC/MS analysis relative to control; type: ADME, cell-free; conditions: read-out: Stability
[14] = Selectivity ratio of MIC for antibacterial activity against Klebsiella pneumoniae ATCC 13883 to MIC for antibacterial activity against carbapenem-resistant Klebsiella pneumoniae ATCC BAA-2470; type: functional
Lipid bilayer = assay: Induction of membrane disruption in bacterial inner membrane mimic DOPC/DOPG (7:3) large unilamellar vesicles assessed as decrease in particle size of liposome at 1:1 compound to lipid ratio measured after 90 mins by dynamic light scattering analysis; type: cell membranes
Staphylococcus aureus [15] = assay: Antibacterial activity against methicillin resistant Staphylococcus aureus ATCC BAA-1556 after 24 hrs in presence of 2 mM of CaCl2 by microtiter plate method; type: functional
Pseudomonas aeruginosa [16] = assay: Antibacterial activity against imipenem resistant Pseudomonas aeruginosa ATCC BAA-1744 incubated for 24 hrs by microtiter plate method; type: functional
Escherichia coli [17] = assay: Antibacterial activity against Escherichia coli ATCC 25922 after 24 hrs in presence of 2 mM CaCl2 at by microtiter plate method; type: functional
[18] = Cytotoxicity against HEK293 assessed as cell viability at 150 ug/ml incubated for 24 hrs by microplate spectrophotometer analysis method relative to control; type: toxicity, cell-based; conditions: human, HEK293 cells, at 150 µg/mL, read-out: Activity
Escherichia coli [19] = assay: Antibacterial activity against Escherichia coli ATCC 25922 after 24 hrs in presence of fetal bovine serum by microtiter plate method; type: functional
Staphylococcus aureus [20] = assay: Bactericidal activity against methicillin resistant Staphylococcus aureus ATCC BAA-1556 assessed as time required for complete reduction of bacterial growth at MIC by counting formed colonies; type: functional
Staphylococcus aureus [21] = assay: Antibacterial activity against methicillin resistant Staphylococcus aureus ATCC BAA-1556 after 24 hrs in presence of fetal bovine serum by microtiter plate method; type: functional
Staphylococcus aureus [22] = assay: Antibacterial activity against methicillin resistant Staphylococcus aureus ATCC BAA-1556 after 24 hrs in presence of 1 mM of by microtiter plate method; type: functional
Acinetobacter baumannii = assay: Antibacterial activity against ciprofloxacin resistance Acinetobacter baumannii ATCC BAA1605 incubated for 24 hrs by microtiter plate method; type: functional
[23] = Selectivity ratio of MIC for antibacterial activity against Pseudomonas aeruginosa ATCC 10145 to MIC for antibacterial activity against imipenem-resistant Pseudomonas aeruginosa ATCC BAA-1744; type: functional
Cell membrane [24] = assay: Membrano-lytic effect in cytoplasmic membrane of methicillin resistant Staphylococcus aureus ATCC BAA-1556 assessed as disruption by measuring propidium iodide fluorescence incubated for 1 hr by FACscan flow cytometer analysis; conditions: DDE = dose-dependent effect
HepaRG [25] = assay: Cytotoxicity against human HPRGC10 assessed as cell viability at 150 ug/ml incubated for 24 hrs by microplate spectrophotometer analysis method relative to control; type: functional; conditions: read-out: Activity
Escherichia coli [26] = assay: Antibacterial activity against Escherichia coli ATCC 25922 after 24 hrs in presence of 4.5 mM of KCl at by microtiter plate method; type: functional
Staphylococcus aureus [27] = assay: Antibacterial activity against methicillin resistant Staphylococcus aureus ATCC BAA-1556 after 24 hrs in presence of 4.5 mM of KCl by microtiter plate method; type: functional
Escherichia coli [28] = assay: Bactericidal activity against Escherichia coli ATCC BAA-2452 assessed as reduction of bacterial growth at MIC by counting formed colonies; type: functional, organism-based; conditions: time <= 4.0 hrs, TDE = time-dependent effect
Enterococcus faecalis [29] = assay: Antibacterial activity against vancomycin-resistant Enterococcus faecalis ATCC 51575 incubated for 24 hrs by microtiter plate method; type: functional
Cell membrane [30] = assay: Membrano-lytic effect in cytoplasmic membrane of Escherichia coli ATCC BAA-2452 assessed as disruption by measuring propidium iodide fluorescence at MIC incubated for 1 hr by FACscan flow cytometer analysis
Bacillus subtilis = assay: Antibacterial activity against Bacillus subtilis ATCC 6633 incubated for 24 hrs by microtiter plate method; type: functional
[31] = Hemolytic activity in human RBC assessed as hemolysis incubated for 2 hrs by spectrophotometer analysis; type: toxicity, cell-based, Erythrocyte; conditions: human red blood cells (erythrocytes)
Staphylococcus aureus [32] = assay: Bactericidal activity against methicillin resistant Staphylococcus aureus ATCC BAA-1556 assessed as reduction of bacterial growth at MIC by counting formed colonies; type: functional, organism-based; conditions: time <= 4.0 hrs, TDE = time-dependent effect
Enterococcus faecium [33] = assay: Antibacterial activity against vancomycin-resistant Enterococcus faecium ATCC 700221 incubated for 24 hrs by microtiter plate method; type: functional
Pseudomonas aeruginosa [34] = assay: Antibacterial activity against Pseudomonas aeruginosa ATCC 10145 incubated for 24 hrs by microtiter plate method; type: functional
HepaRG [35] = assay: Cytotoxicity against human HPRGC10 assessed as cell viability at 50 ug/ml incubated for 24 hrs by microplate spectrophotometer analysis method relative to control; type: functional; conditions: read-out: Activity

| SMILES | MIC (Bacillus cereus) [µg/mL] | MIC (Klebsiella pneumoniae) [µg/mL] | MIC (Staphylococcus aureus [1]) [µg/mL] | MIC (Escherichia coli [2]) [µg/mL] | Activity (Staphylococcus aureus [3]) | Activity (Staphylococcus aureus [4]) | MBC (Staphylococcus aureus [5]) [µg/mL] | Activity (Escherichia coli [6]) | remaining at 0.5 h, 100 µM [7] [%] | MIC (Escherichia coli [8]) [µg/mL] | MIC (Enterococcus faecium [9]) [µg/mL] | viability at 24 h, 50 ug/ml [10] [%] | MIC (Staphylococcus aureus [11]) [µg/mL] | Ratio (Enterococcus faecalis [12]) | remaining at 24 h, 100 µM [13] [%] | Ratio [14] | Activity (Lipid bilayer) | MIC (Staphylococcus aureus [15]) [µg/mL] | MIC (Pseudomonas aeruginosa [16]) [µg/mL] | MIC (Escherichia coli [17]) [µg/mL] | other results |
| --- | --- | --- | --- | --- | --- | --- | --- | --- | --- | --- | --- | --- | --- | --- | --- | --- | --- | --- | --- | --- | --- |
| N=C(N)NCCC[C@@H]1NC(=O)[C@H](CCCNC(=N)N)NC(=O)[C@H](CCCNC(=N)N)NC(=O)[C@H](Cc2ccc3ccccc3c2)NC(=O)[C@H](Cc2ccc3ccccc3c2)NC(=O)[C@H](Cc2ccc3ccccc3c2)NC(=O)[C@H](CCCNC(=N)N)NC1=O (cyclo(RRRR[2Nal][2Nal][2Nal])) | 3.1 (≈ 2.55 µM) | 12.5 (≈ 10.3 µM) | 3.1 | 25 | Active | Active | 6.2 (≈ 5.1 µM) | Active | 82 | 25 | 3.1 (≈ 2.55 µM) | 80 | 3.1 (≈ 2.55 µM) | 2 | 60 | 2 | Active | 3.1 | 12.5 (≈ 10.3 µM) | 25 | viability at 24 h, 150 ug/ml [18]: 58%; MIC (Escherichia coli [19]): > 50 µg/mL; Activity (Staphylococcus aureus [20]): Active; MIC (Staphylococcus aureus [21]): 6.2 µg/mL; MIC (Staphylococcus aureus [22]): 3.1 µg/mL; MIC (Acinetobacter baumannii): 12.5 µg/mL (≈ 10.3 µM); Ratio [23]: 2; Activity (Cell membrane [24]): Dde; viability at 150 µg/mL (HepaRG [25]): 61%; MIC (Escherichia coli [26]): 25 µg/mL; MIC (Staphylococcus aureus [27]): 3.1 µg/mL; Activity (Escherichia coli [28]): Tde; MIC (Enterococcus faecalis [29]): 3.1 µg/mL (≈ 2.55 µM); Activity (Cell membrane [30]): 50%; MIC (Bacillus subtilis): 1.5 µg/mL (≈ 1.23 µM); HC50 at 2 h [31]: 80 µg/mL; Activity (Staphylococcus aureus [32]): Tde; MIC (Enterococcus faecium [33]): 3.1 µg/mL (≈ 2.55 µM); MIC (Pseudomonas aeruginosa [34]): 25 µg/mL (≈ 20.6 µM); viability at 50 µg/mL (HepaRG [35]): 93% |
| N=C(N)NCCC[C@@H]1NC(=O)[C@H](CCCNC(=N)N)NC(=O)[C@H](CCCNC(=N)N)NC(=O)[C@H](C(c2ccccc2)c2ccccc2)NC(=O)[C@H](C(c2ccccc2)c2ccccc2)NC(=O)[C@H](C(c2ccccc2)c2ccccc2)NC(=O)[C@H](CCCNC(=N)N)NC1=O (cyclo(RRRR[Dip][Dip][Dip])) | 3.1 (≈ 2.39 µM) | 12.5 (≈ 9.66 µM) | 3.1 | 12.5 | Active | Active | 6.2 (≈ 4.79 µM) | Active | 86 | 12.5 | 3.1 (≈ 2.39 µM) | 80 | 3.1 (≈ 2.39 µM) | 2 | 65 | 2 | Active | 3.1 | 12.5 (≈ 9.66 µM) | 12.5 | viability at 24 h, 150 ug/ml [18]: 58%; MIC (Escherichia coli [19]): 50 µg/mL; Activity (Staphylococcus aureus [20]): Active; MIC (Staphylococcus aureus [21]): 6.2 µg/mL; MIC (Staphylococcus aureus [22]): 6.2 µg/mL; MIC (Acinetobacter baumannii): 12.5 µg/mL (≈ 9.66 µM); Ratio [23]: 2; Activity (Cell membrane [24]): Dde; viability at 150 µg/mL (HepaRG [25]): 61%; MIC (Escherichia coli [26]): 12.5 µg/mL; MIC (Staphylococcus aureus [27]): 3.1 µg/mL; Activity (Escherichia coli [28]): Tde; MIC (Enterococcus faecalis [29]): 6.2 µg/mL (≈ 4.79 µM); Activity (Cell membrane [30]): 50%; MIC (Bacillus subtilis): 1.5 µg/mL (≈ 1.16 µM); HC50 at 2 h [31]: 70 µg/mL; Activity (Staphylococcus aureus [32]): Tde; MIC (Enterococcus faecium [33]): 3.1 µg/mL (≈ 2.39 µM); MIC (Pseudomonas aeruginosa [34]): 25 µg/mL (≈ 19.3 µM); viability at 50 µg/mL (HepaRG [35]): 93% |
